According to article PMC7905067, “Design and Immunological Evaluation of a Hybrid Peptide as a Potent TLR2 Agonist by Structure-Based Virtual Screening” (Frontiers in Cell and Developmental Biology, 2021):
Like-named read-outs stand apart in the source and are kept apart here.

Key:
RAW264.7 cells = experiment: In vitro immunomodulatory activity: cytokine secretion by RAW264.7 cells (ELISA); format: cell-based, murine; settings: 10 μg/mL, 12 h, 37°C, ELISA; three independent experiments
Description: RAW264.7 cells were seeded at a density of 1.0 × 10^6 cell/mL and treated with (10 μg/mL) or without peptides in each well of a 6-well plate for 12 h at 37°C in a humidified incubator with 5% CO2. After treatment, TNF-α, IL-6 and IL-1β secretion in the cell supernatants was assessed using ELISA kits according to the manufacturer’s instructions.

[1] = system: immunoregulatory mediators, proinflammatory cytokines, and chemokines; parameters: method as in 4 sources, ref Scott et al., 2002; Tjabringa et al., 2003; Bowdish et al., 2004 ||| ref Mookherjee et al., 2006; Molhoek et al., 2009 ||| ref Li et al., 2006; Tan et al., 2017 ||| ref Wei et al., 2018; settings: cited from earlier work
TLR2, RAW264.7 cells = experiment: TLR2 blocking experiment (anti-mouse TLR2 C9A12, then LTPa); format: cell-based; settings: LTPa 10 μg/mL, 24 h; with or without TLR2 mAb (C9A12) 1 h before; ELISA
Description: For TLR2 blocking experiments, RAW264.7 cells were cultured in 24-well plates overnight at 37°C. The mouse IgG2a isotype control antibody or anti-mouse TLR2 (C9A12; InvivoGen, San Diego, CA, United States) was added to the cell cultures 1 h before being treated with LTPa for 24 h at 37°C. Then, the levels of TNF-α, IL-6, and IL-1β in the culture supernatant were analyzed.

[2] = system: CTX-immunosuppressed murine model; experiment: Body weight and immune organ indices in CTX-immunosuppressed mice; format: in vivo, BALB/c mice; settings: CTX 80 mg/kg i.p. 3 days, peptide 10 mg/kg i.p. days 4-10, n = 12; for bodyweight: CTX group vs control
Description: BALB/c mice (female, 6–8 weeks; Charles River, Beijing, China) used in this study were maintained in a specific-pathogen-free facility (55 ± 10% humidity and 22 ± 1°C) during the experiments. These experiments were conducted with approval from the Institutional Animal Care and Use Committee of China Agricultural University (certificate of the Beijing Laboratory Animal employee, ID: 18086).
(§1) After a 7-day adaptation period, the mice were randomly divided into five groups (n = 12 in each group): (1) control group: physiological saline was injected intraperitoneally once daily; (2) cyclophosphamide (CTX) group: CTX (80 mg/kg mouse weight; Sigma-Aldrich, St. Louis, MO, United States) was injected intraperitoneally once daily for the first 3 days. […] From days 4 to 10, peptide (10 mg/kg mouse weight) was injected intraperitoneally into mice once daily. Twenty-four hours after the last drug administration, all the mice were weighed and then euthanized, and their tissues and blood were collected for further study. The body weight index was calculated according to the formula:
Index(%)=finalbodyweight-initalbodyweight/initialbodyweight×100
The thymus and spleen indices were measured by the following formula:
Index(mg/g)=weightofthymusorspleen/bodyweight

TLR2 = settings: cited from earlier work
Excerpt: Therefore, LL-37 could prevent or attenuate immunosuppression.

[3] = ref Anders et al., 2018; cited from earlier work
[4] = cited from earlier work
Excerpt: TP5 plays a vitally important role in the process of immune enhancement.

[5] = system: serum TNF-α, IL-6, and IL-1β; experiment: Serum cytokines by ELISA in CTX-treated mice; format: in vivo, BALB/c mice; settings: CTX 80 mg/kg i.p. 3 days, peptide 10 mg/kg i.p. days 4-10, three biological replicates
Description: as §1, with “formula: […]” for “formula:”
(§2) Serum was collected from blood and then assayed by ELISA kits according to the protocol supplied by the manufacturer (eBioscience, San Diego, United States) to determine the secretion of IgG, IgA, IgM, TNF-α, IL-6, and IL-1β.

[6] = system: MHC class II, mouse PBMCs; experiment: DC maturation: MHC-II expression by flow cytometry; format: in vivo, BALB/c mice; settings: CTX 80 mg/kg i.p. 3 days; peptide 10 mg/kg i.p. days 4-10; three biological replicates
Description: as §1, with “formula: […]” for “formula:”
Mouse peripheral blood mononuclear cells (PBMCs) were obtained from the different groups of mice through Ficoll density gradient centrifugation. The cells were resuspended in PBS with 5% FBS and incubated with 10% (v/v) normal goat serum for 15 min at 4°C. The cells were combined with FITC-conjugated antibodies specific for MHC class II (MHC-II; BD Pharmingen, United States). The surface expression of MHC-II was determined by flow cytometry.

serum IgA, IgG, and IgM = experiment: Serum immunoglobulins by ELISA in CTX-treated mice; format: in vivo, BALB/c mice; settings: CTX 80 mg/kg i.p. 3 days, peptide 10 mg/kg i.p. days 4-10, three biological replicates
Description: as §1, with “formula: […]” for “formula:”
as §2

[7] = system: T lymphocyte subpopulations (CD4 +, CD8 +), mouse peripheral blood; experiment: Peripheral blood T lymphocyte subpopulations by flow cytometry; format: in vivo, BALB/c mice; settings: CTX 80 mg/kg i.p. 3 days; peptide 10 mg/kg i.p. days 4-10; three biological replicates
Description: as §1, with “formula: […]” for “formula:”
Erythrocytes were aseptically obtained from the different groups of mouse peripheral blood and lysed with RBC lysis buffer. The remaining cells were washed with PBS and resuspended in PBS. The cells were combined with peridinin-chlorophyll-protein complex (PerCP)-conjugated anti-mouse CD3 +, allophycocyanin (APC)-conjugated anti-mouse CD4 +, and fluorescein isothiocyanate (FITC)-conjugated anti-mouse CD8 + (BD Pharmingen, United States) for 30 min at 4°C. The T lymphocyte subpopulations were analyzed by flow cytometry.

[8] = system: TLR2-NF-κB signaling pathway; experiment: Western blot of TLR2-NF-κB signaling pathway; format: in vivo, BALB/c mice; settings: proteins from serum, three independent experiments
Description: as §1, with “formula: […]” for “formula:”
Whole proteins were extracted from the serum using a whole-protein extraction kit (Nanjing KeyGEN Biotech, Nanjing, China). The protein concentrations were determined with the BCA Assay (KeyGEN Biotech, Nanjing, China) according to the manufacturer’s instructions. Equivalent amounts of protein were separated by SDS-PAGE and blotted onto polyvinylidene fluoride membranes (Bio-Rad). […]

thymic atrophy = system: thymic atrophy; parameters: method as in Goldstein et al., 1979; Singh et al., 1998; settings: ref Goldstein et al., 1979; Singh et al., 1998; cited from earlier work

Compound: FKRIVQRIKDFLRRKDVT [LTPb, hybrid peptide combining LL-37b and TP5]
- IL-1β secretion (RAW264.7 cells): remarkable increases
- IL-6 secretion (RAW264.7 cells): remarkable increases
- TNF-α secretion (RAW264.7 cells): remarkable increases

Compound: IGKEFKRIVQRIKDFLRNLVPRTE [LL-37 (13–36), characteristic fragment of LL-37]
- immunoregulatory activity ([1]; ref Mookherjee et al., 2006, Molhoek et al., 2009): robust immunoregulatory activity

Compound: TLR2 mAb: anti-mouse TLR2 (C9A12; InvivoGen) [reference compound]
- TNF-α, IL-6, and IL-1β production (TLR2, RAW264.7 cells): significantly inhibited the TNF-α, IL-6, and IL-1β production induced by LTPa

Compound: LLGDFFRKSKEKIGKEFKRIVQRIKDFLRNLVPRTES [LL-37]
- bodyweight [2]: improved bodyweight rapidly
- production of immunoregulatory mediators, proinflammatory cytokines, and chemokines ([1]; ref Scott et al., 2002, Tjabringa et al., 2003, Bowdish et al., 2004): stimulates the production of various immunoregulatory mediators, proinflammatory cytokines, and chemokines
- innate immune response by binding to TLR2 (TLR2; ref Mansour et al., 2014, Zhang et al., 2016, Agier et al., 2018): robust innate immune response by binding to TLR2
- cytotoxicity [3]: hampered by its cytotoxicity
- half-life ([4]; ref not separately given (sentence cites Anders et al., 2018)): long half-life

Compound: O=P1(N(CCCl)CCCl)NCCCO1 (centres unmarked) [CTX, cyclophosphamide, reference compound]
- serum IL-1β level [5]: significantly decreased
- serum IL-6 level [5]: significantly decreased
- serum TNF-α level [5]: significantly decreased
- expression of MHC-II [6]: significantly decreased
- serum IgA level (serum IgA, IgG, and IgM): significantly reduced
- serum IgG level (serum IgA, IgG, and IgM): significantly reduced
- serum IgM level (serum IgA, IgG, and IgM): significantly reduced
- spleen index [2]: significantly decreased
- thymus index [2]: significantly decreased
- bodyweight [2]: significant decrease in the bodyweight
- proportions of CD4 + and CD8 + T lymphocytes [7]: remarkably reduced the proportions of CD4 + and CD8 + T lymphocytes
- expression levels of TLR2, MyD88, and TRAF6 [8]: significantly decreased the expression levels of TLR2, MyD88, and TRAF6
- phosphorylation of IKK-β, IκB-α, and NF-κB [8]: significantly decreased

Compound: FKRIVQRI KDFLR [LL-37 (17–29), characteristic fragment of LL-37]
- immunoregulatory activity ([1]; ref Li et al., 2006, Tan et al., 2017): robust immunoregulatory activity

Compound: RKDVTIGKEFKRIVQRIKDFLRNL [TPLc, hybrid peptide combining TP5 and LL-37c]
- IL-1β secretion (RAW264.7 cells): no significant increases
- IL-6 secretion (RAW264.7 cells): no significant increases
- TNF-α secretion (RAW264.7 cells): no significant increases

Compound: RKDVT [TP5, Thymopentin]
- bodyweight [2]: improved bodyweight rapidly
- TLR2 binding (TLR2; ref Li et al., 2013): exert its immunoregulatory activity by binding TLR2
- restoration of thymic atrophy (thymic atrophy): able to restore the thymic atrophy induced by immunosuppressants
- half-life [4]: short half-life

Compound: IGKEFKRIV QRIKDFLRNL [LL-37 (13–31), characteristic fragment of LL-37]
- immunoregulatory activity ([1]; ref Wei et al., 2018): robust immunoregulatory activity

Compound: RKDVTIGKEFKRIVQRIKDFLRNLVPRTE [TPLa, hybrid peptide combining TP5 and LL-37a]
- IL-1β secretion (RAW264.7 cells): no significant increases
- IL-6 secretion (RAW264.7 cells): no significant increases
- TNF-α secretion (RAW264.7 cells): no significant increases

Compound: IGKEFKRIVQRIKDFLRNLRKDVT [LTPc, hybrid peptide combining LL-37c and TP5]
- IL-1β secretion (RAW264.7 cells): remarkable increases
- IL-6 secretion (RAW264.7 cells): remarkable increases
- TNF-α secretion (RAW264.7 cells): remarkable increases

Compound: RKDVT FKRIVQRIKDFLR [TPLb, hybrid peptide combining TP5 and LL-37b]
- IL-1β secretion (RAW264.7 cells): no significant increases
- IL-6 secretion (RAW264.7 cells): no significant increases
- TNF-α secretion (RAW264.7 cells): no significant increases
